The source made the active and inactive calls.
Columns and labels:
[1] = blockers of HIV-1 envelope-mediated cell-cell fusion – cherry-pick, dose response (AID 652057); format: functional, cell-based
[2] = HIV-1 AD8 envelope cell-cell fusion blockers – cherry-pick, dose response (AID 652062); format: functional, cell-based;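 also: luciferase signal from cell-cell fusion driven by HIV-1 clade B AD8 Env; potency is for inhibitors of fusion seen as a drop in luminescence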
[3] = molecular target: T1, Polyadenylate-binding protein 1 (Homo sapiens, UniProt P11940); assay: MLLE binding blockers, Cy5 peptide tracer – biochemical, fluorescence polarization, Cy5-PAM2 peptide, secondary, miRNA deadenylation inhibitor project, dose response (AID 602260); format: functional; settings: read-out: IC50_Mean
[4] = molecular target: T1, Polyadenylate-binding protein 1; assay: MLLE domain peptide-binding blockers, IC50 – biochemical, fluorescence polarization, FITC-PAM2 peptide, dose response (AID 602259); format: functional; settings: read-out: IC50_Mean
Fatty acid synthase [5] = molecular target: T2, Fatty acid synthase (Homo sapiens, UniProt P49327); assay: inhibition of human FAS-TE enzyme activity – biochemical, endpoint fluorescence intensity, uHTS hits, dose response (AID 624327); format: functional;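 also: fluorescence from hydrolysis of an O-methyl fluorescein acyl ester substrate by the enzyme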
Fatty acid synthase [6] = molecular target: T2, Fatty acid synthase; assay: inhibition of human FAS-TE enzyme activity – biochemical, kinetic fluorescence intensity, dose response (AID 624326); format: functional;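 also: rate of fluorescence rise from hydrolysis of a fluorogenic O-methyl fluorescein ester substrate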
[7] = molecular target: T3, Replicative DNA helicase DnaB (Mycobacterium tuberculosis, UniProt P9WMR3); assay: DnaB intein splicing inhibitors, dose response, biochemical, cell-free fluorescence (AID 449749); format: functional
T3 sequence (P9WMR3 whole entry): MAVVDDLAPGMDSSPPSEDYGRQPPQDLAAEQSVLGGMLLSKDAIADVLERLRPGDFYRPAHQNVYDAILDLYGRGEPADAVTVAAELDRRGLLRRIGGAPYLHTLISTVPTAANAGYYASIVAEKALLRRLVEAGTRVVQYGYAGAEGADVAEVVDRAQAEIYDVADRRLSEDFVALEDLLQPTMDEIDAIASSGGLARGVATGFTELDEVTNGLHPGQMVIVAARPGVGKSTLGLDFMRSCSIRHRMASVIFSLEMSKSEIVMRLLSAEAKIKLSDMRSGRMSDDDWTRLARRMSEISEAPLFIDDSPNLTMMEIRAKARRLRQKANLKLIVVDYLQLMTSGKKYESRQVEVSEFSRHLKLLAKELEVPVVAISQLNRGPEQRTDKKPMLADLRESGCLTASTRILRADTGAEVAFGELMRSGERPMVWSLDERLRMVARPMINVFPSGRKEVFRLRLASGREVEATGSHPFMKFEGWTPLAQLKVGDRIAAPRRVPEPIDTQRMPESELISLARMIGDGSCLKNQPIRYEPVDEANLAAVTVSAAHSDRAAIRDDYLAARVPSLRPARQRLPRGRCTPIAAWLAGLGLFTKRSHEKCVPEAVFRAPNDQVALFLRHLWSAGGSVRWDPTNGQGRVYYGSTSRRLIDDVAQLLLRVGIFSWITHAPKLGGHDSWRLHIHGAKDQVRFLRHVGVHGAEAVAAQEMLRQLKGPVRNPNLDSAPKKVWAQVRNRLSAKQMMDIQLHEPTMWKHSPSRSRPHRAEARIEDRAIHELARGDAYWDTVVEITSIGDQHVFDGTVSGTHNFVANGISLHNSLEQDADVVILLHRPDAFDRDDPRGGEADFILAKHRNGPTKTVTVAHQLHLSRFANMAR

Protein RecA = molecular target: T4, Protein RecA (Mycobacterium tuberculosis, UniProt P9WHJ3); assay: Fluorescence Cell-Free Homogeneous Dose Retest to Identify Inhibitors of RecA-Intein Splicing Activity. [Related pubchem assays (depositor defined):AID2097, AID2223, AID489010, AID492950]; format: functional
T4 sequence (P9WHJ3 whole entry): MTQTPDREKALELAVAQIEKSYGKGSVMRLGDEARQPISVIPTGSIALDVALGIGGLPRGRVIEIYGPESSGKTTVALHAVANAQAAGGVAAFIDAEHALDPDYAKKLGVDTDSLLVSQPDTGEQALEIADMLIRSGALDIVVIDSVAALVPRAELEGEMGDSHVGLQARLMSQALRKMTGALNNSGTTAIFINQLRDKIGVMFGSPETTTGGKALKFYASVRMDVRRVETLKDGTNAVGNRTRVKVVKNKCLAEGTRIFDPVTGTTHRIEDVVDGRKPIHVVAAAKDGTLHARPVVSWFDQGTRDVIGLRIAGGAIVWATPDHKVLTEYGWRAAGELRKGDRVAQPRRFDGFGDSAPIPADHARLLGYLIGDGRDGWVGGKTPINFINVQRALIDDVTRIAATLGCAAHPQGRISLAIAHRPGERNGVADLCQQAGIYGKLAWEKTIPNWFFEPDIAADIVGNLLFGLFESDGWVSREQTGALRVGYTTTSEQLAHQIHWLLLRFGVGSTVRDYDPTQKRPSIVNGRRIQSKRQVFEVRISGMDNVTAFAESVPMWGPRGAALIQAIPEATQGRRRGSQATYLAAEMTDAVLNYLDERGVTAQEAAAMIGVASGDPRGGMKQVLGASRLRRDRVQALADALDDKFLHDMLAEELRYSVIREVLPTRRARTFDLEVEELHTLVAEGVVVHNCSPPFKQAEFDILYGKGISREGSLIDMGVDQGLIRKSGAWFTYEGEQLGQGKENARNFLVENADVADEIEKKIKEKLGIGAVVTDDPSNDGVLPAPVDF

Genome polyprotein = Genome polyprotein (dengue virus type 2, UniProt P29990); assay: flavivirus cap methylation enzyme inhibition – biochemical, confirmation dose response, primary screen (AID 588689); format: functional
[8] = NIH-3T3 fibroblast cytotoxicity, dose response, cytotoxicity control, cell-based, fluorescence, Alamar Blue, secondary assay (AID 2327); format: functional;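 also: NIH-3T3 mouse fibroblasts cultured with fluconazole at 8 µg/mL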
[9] = fluconazole-exposed Candida albicans growth modulators – fluorescence, retest, confirmation (AID 2467); format: functional, cell-based
[10] = Trypanosoma cruzi growth suppression in host cells – NIH3T3 host cells, beta-gal luminescence, confirmation (AID 2044); format: functional, cell-based;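 also: intracellular parasites grown in NIH/3T3 mouse fibroblasts as host cells; luminescent beta-galactosidase reporter signal from transgenic T. cruzi replicating inside host cells; inhibitors lower the luminescence signal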
[11] = NIH3T3 cell viability loss – ATP luminescence, mouse fibroblasts, counter-screen, dose response (AID 2010); format: functional, cell-based;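 also: cells exposed to compound for about 90 hours before reading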
[12] = tested on: Streptococcus sp. 'group A'; assay: Streptococcus pyogenes SK(-)GAS viability under kanamycin – luminescence, BacTiterGlo, confirmation, counter-screen for streptokinase expression inhibitor project, dose response (AID 1900); format: functional, organism-based
Streptococcus = assay: GAS UMAA2166 growth inhibition – luminescence, BacTiterGlo, counter-screen for streptokinase expression inhibitor project, dose response (AID 1915); format: functional, organism-based;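 also: potency for reduction of bacterial viability or growth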
[13] = molecular target: Heat shock protein HSP 90-alpha (Homo sapiens, UniProt P07900); format: functional, organism-based
INS1 = assay: INS-1E survival protection against cytokine death – cell-based, luminescence, retest, dose response (AID 449756); format: functional; settings: Rattus norvegicus;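 also: cell death triggered by IL-1 beta plus TNF-alpha plus IFN-gamma mixture; protective hits raise ATP signal compared with cytokine alone wells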
Streptokinase A = molecular target: T5, Streptokinase A (Streptococcus pyogenes serotype M1, UniProt P10520); assay: viability-normalized secreted streptokinase activity reduction – plasminogen activation absorbance, OD405, dose response (AID 1914); format: functional, Streptococcus pyogenes M1 GAS;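 also: secreted streptokinase activity via plasminogen activation per viability signal from cell pellet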
T5 sequence (P10520 whole entry): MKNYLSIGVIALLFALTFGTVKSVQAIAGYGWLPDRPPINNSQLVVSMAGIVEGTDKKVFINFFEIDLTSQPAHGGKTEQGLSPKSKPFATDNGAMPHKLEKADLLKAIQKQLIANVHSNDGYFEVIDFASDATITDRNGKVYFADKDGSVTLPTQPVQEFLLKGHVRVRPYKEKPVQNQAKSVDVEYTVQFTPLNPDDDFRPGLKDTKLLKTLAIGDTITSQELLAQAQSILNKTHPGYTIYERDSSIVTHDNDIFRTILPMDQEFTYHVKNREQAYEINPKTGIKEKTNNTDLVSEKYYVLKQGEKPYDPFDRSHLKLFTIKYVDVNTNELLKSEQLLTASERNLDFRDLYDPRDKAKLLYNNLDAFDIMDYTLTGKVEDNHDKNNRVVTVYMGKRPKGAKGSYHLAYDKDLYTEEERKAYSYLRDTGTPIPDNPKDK

[14] = off-target signal loss in HeLa-CEM21 co-culture – HeLa F-luc CTL cells, cherry-picked, counter-screen for HIV-1 Env fusion inhibitor project, dose response (AID 652040); format: functional, cell-based;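 also: potency for signal decrease marking cytotoxic or nonspecific inhibition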
[15] = intracellular Trypanosoma cruzi inhibitors in host cells – cell-based, plate reader, cherry-pick samples, set 3, dose response (AID 651818); format: functional;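 also: compounds incubated with infected cells for about four days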

T1 sequence (P11940 whole entry, the tested form may be a part): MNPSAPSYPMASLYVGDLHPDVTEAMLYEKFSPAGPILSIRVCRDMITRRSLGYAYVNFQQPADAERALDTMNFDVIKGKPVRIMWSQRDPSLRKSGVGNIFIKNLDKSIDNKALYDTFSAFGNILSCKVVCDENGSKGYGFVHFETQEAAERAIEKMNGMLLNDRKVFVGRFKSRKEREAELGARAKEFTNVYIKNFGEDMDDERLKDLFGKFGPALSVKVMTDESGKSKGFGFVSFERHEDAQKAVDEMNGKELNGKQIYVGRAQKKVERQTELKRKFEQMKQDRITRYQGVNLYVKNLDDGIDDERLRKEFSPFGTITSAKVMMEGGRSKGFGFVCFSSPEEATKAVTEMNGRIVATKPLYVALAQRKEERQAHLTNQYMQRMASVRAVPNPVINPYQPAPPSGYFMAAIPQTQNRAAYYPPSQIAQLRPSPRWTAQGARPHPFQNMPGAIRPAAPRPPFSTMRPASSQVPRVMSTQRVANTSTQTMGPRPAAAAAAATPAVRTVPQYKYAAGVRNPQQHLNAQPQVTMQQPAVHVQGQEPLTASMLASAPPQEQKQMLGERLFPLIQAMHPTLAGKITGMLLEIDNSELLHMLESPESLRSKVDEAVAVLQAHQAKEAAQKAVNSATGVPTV
T2 sequence (P49327 whole entry): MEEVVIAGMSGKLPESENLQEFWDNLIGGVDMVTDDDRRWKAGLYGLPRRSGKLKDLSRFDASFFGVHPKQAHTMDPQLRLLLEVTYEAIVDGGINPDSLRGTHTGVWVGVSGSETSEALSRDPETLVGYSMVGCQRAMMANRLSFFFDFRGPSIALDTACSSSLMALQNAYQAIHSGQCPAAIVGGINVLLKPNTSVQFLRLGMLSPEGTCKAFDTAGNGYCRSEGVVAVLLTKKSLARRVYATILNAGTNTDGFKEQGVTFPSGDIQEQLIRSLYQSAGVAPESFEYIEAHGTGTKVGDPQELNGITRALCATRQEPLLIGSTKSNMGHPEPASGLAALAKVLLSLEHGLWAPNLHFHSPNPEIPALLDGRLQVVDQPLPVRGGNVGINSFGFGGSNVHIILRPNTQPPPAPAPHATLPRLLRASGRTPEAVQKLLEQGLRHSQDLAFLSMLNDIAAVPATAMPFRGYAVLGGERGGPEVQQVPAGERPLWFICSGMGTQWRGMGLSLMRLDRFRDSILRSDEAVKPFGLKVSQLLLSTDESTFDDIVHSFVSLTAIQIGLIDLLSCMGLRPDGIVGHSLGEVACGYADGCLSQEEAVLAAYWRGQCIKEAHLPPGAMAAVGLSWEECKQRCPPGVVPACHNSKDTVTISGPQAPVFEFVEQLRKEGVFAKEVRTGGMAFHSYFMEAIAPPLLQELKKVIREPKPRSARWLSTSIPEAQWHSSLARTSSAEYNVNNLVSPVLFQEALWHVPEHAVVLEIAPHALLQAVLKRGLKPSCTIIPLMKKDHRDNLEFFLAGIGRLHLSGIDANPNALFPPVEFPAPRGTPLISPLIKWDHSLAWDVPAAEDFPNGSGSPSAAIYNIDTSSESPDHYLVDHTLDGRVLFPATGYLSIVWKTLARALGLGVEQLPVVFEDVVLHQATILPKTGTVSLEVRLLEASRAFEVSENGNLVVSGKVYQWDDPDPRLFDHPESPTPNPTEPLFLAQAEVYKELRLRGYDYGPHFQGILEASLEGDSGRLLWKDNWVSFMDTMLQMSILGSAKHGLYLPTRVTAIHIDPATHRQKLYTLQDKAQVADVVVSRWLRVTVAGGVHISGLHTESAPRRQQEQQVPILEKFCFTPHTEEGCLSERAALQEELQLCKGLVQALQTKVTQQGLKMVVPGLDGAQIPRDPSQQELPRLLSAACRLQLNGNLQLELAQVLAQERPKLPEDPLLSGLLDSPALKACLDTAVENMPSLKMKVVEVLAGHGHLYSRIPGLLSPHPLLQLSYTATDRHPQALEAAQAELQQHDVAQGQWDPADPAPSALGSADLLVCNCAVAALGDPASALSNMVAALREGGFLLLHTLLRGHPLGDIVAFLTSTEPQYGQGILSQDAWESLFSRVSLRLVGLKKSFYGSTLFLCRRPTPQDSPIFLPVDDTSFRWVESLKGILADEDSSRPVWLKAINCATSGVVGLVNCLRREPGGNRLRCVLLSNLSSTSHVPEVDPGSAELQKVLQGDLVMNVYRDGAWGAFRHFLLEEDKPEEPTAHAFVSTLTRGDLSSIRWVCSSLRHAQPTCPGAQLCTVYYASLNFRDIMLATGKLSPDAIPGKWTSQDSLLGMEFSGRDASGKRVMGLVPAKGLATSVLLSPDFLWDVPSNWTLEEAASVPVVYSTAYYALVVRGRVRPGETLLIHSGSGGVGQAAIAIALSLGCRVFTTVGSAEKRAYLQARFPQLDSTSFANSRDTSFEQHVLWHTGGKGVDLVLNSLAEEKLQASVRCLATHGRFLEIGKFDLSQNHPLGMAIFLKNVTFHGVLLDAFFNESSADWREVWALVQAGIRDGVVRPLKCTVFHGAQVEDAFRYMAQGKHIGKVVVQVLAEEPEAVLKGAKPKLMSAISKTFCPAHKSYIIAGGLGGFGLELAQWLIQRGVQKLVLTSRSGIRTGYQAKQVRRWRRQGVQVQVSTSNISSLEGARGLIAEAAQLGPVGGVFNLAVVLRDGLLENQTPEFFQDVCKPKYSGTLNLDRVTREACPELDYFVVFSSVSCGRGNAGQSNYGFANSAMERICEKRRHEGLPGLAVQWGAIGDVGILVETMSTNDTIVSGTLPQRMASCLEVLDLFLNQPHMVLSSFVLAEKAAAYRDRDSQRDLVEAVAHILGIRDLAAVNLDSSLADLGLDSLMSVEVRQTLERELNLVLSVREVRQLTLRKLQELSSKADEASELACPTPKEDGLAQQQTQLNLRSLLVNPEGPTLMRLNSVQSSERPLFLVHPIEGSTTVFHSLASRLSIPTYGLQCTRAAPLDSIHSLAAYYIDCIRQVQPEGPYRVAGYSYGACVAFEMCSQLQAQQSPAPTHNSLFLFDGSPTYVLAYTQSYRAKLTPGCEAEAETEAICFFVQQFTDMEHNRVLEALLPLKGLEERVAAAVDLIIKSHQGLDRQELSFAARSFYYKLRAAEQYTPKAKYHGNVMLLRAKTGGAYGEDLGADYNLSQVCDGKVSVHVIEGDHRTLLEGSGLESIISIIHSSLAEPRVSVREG
Genome polyprotein, sequence (P29990 2492-3391 limits assumed): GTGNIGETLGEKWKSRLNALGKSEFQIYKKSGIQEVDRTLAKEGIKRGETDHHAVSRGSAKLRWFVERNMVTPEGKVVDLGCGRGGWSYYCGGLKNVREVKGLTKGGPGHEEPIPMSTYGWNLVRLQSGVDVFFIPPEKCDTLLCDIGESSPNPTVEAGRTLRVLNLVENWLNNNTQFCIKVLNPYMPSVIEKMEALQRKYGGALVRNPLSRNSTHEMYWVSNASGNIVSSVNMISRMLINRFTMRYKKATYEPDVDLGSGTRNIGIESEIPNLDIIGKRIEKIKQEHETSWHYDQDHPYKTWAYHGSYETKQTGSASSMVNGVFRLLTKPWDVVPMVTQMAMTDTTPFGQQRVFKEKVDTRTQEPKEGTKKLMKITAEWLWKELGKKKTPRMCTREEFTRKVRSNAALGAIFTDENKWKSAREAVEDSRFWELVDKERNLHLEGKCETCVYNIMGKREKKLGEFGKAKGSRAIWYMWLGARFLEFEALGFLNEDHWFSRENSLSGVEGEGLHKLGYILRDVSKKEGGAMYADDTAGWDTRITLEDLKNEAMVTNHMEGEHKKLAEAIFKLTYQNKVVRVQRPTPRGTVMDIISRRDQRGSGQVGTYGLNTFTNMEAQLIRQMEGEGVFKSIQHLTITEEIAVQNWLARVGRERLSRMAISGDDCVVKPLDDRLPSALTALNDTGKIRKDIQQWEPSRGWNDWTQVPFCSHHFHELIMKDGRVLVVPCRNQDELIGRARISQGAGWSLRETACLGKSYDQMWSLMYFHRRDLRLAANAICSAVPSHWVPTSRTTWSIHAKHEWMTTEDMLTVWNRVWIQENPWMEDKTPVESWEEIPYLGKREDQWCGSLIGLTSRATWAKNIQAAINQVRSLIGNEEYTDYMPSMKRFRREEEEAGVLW

Cc1ccc(S(=O)(=O)NCC(=O)OCC(=O)NCc2ccc3c(c2)OCO3)cc1
AC50 [1]: 24 µM (active)
AC50 [2]: 5.22 µM (active)

CC(OC(=O)CSc1ccc([N+](=O)[O-])cc1)C(=O)NC1CC1 (stereo unspecified)
IC50 [3]: > 66 µM (inactive)
IC50 [4]: > 66 µM (inactive)

O=C(CCNC(=O)c1ccc([N+](=O)[O-])cc1)NCCc1ccc(Cl)cc1
IC50 (Fatty acid synthase [5]): 8.77 µM (active)
IC50 (Fatty acid synthase [6]): 7.38 µM (active)

Cc1ccc(N2C(=O)C(Cl)=C(N3CCOCC3)C2=O)cc1Cl
AC50 [7]: 6.76 µM (active)
EC50 (Protein RecA): 2.61 µM (active)
IC50 (Genome polyprotein): 34.7 µM (active)

CC(C)c1ccc(NC(=O)Cc2cn(C)c3ccccc23)cc1
EC50 [8]: > 150 µM (inactive)
EC50 [9]: > 38 µM (not active)

Cn1c(-c2ccccc2)cnc1NCc1cccc([N+](=O)[O-])c1
IC50 (Fatty acid synthase [5]): 6.81 µM (active)
IC50 (Fatty acid synthase [6]): 8.79 µM (active)

CC(NC(=O)CSC1=NCCS1)c1ccccc1 (stereo unspecified)
IC50 [3]: > 66 µM (inactive)
IC50 [4]: > 66 µM (inactive)

Cc1cc(C)cc(N2C(=O)CC(Sc3ccccc3C(=O)O)C2=O)c1 (stereo unspecified)
IC50 [3]: > 66 µM (inactive)
IC50 [4]: > 66 µM (inactive)

O=C(NC(=S)Nc1ccc(Oc2ccccc2)cc1)c1ccc(Cl)cc1
EC50 [10]: 2.34 µM (active)
EC50 [11]: > 60 µM (not active)
IC50 [3]: > 66 µM (inactive)
IC50 [4]: > 66 µM (inactive)

Cc1c(Br)c([N+](=O)[O-])nn1CC(=O)Nc1ccc(Cc2ccncc2)cc1
IC50 (Fatty acid synthase [5]): 9.53 µM (active)
IC50 (Fatty acid synthase [6]): 8.12 µM (active)

O=C(Cc1ccc([N+](=O)[O-])cc1)NNC(=O)c1ccc2c(c1)OCO2
EC50 [8]: > 150 µM (inactive)
EC50 [9]: > 38 µM (not active)

O=C(Nc1cccc(C(F)(F)F)c1)Oc1ccc(Cl)c2cccnc12
EC50 [12]: 2.54 µM (active)
EC50 (Streptococcus): 4.98 µM (active)
AC50 [13]: 3.86 µM (active)
AC50 (INS1): 7.15 µM (active)

Nc1c(C(=O)Nc2ccc3c(c2)OCCO3)nnn1Cc1ccccc1Cl
AC50 [13]: 10.3 µM (active)
AC50 (INS1): 0.653 µM (active)

O=C(CSc1nc(O)c(Cc2ccccc2)c(=O)[nH]1)Nc1ccccc1
IC50 [3]: > 66 µM (inactive)
IC50 [4]: > 66 µM (inactive)

N#Cc1cc(-c2ccccc2)cn(Cc2c(Cl)cccc2Cl)c1=O
IC50 (Fatty acid synthase [5]): 7.42 µM (active)
IC50 (Fatty acid synthase [6]): 8.23 µM (active)

O=C(COc1ccccc1)Nc1nc(-c2ccncc2)cs1
IC50 [3]: > 66 µM (inactive)
IC50 [4]: > 66 µM (inactive)

Cc1ccc(CNC(=O)CSCc2cccc(F)c2)cc1
EC50 [8]: > 150 µM (inactive)
EC50 [9]: > 38 µM (not active)

CCOC(=O)c1sc(N2C(=O)C(O)=C(C(=O)c3ccco3)C2c2cccc(Cl)c2)nc1C (stereo unspecified)
EC50 [8]: 30.5 µM (active)
EC50 [12]: 7.41 µM (active)
EC50 (Streptokinase A): > 150 µM (not active)
EC50 [9]: 1.41 µM (active)
EC50 (Streptococcus): 8.62 µM (active)

CC(C)(C)c1ccc(-n2ncc3c2CCCC3NC(=O)CN2CCCC2=O)cc1 (stereo unspecified)
AC50 [14]: > 32 µM (inactive)

N=C(N)SCP(=O)(c1ccccc1)c1ccccc1
IC50 [3]: > 66 µM (inactive)
IC50 [4]: > 66 µM (inactive)

O=C(c1ccc(Cl)c([N+](=O)[O-])c1)N1CCN(S(=O)(=O)c2ccc(Cl)cc2)CC1
IC50 (Fatty acid synthase [5]): 14.2 µM (active)
IC50 (Fatty acid synthase [6]): 16.2 µM (active)

O=C(O)c1cccc2c1Cc1cc([N+](=O)[O-])ccc1-2
AC50 [13]: 0.357 µM (active)

C[C@@H]1CN([C@H](C)CO)C(=O)c2cc(NS(=O)(=O)c3ccc(Cl)cc3)ccc2O[C@@H]1CN(C)Cc1ccc(Cl)c(Cl)c1
AC50 [15]: 4.7 µM (active)

C[C@H](CO)N1C[C@H](C)[C@@H](CN(C)CC2CCCCC2)Oc2c(NS(=O)(=O)c3cccs3)cccc2C1=O
AC50 [15]: 19.7 µM (active)

C[C@@H]1CN([C@@H](C)CO)C(=O)Cc2cc(NC(=O)Nc3ccc(C(F)(F)F)cc3)ccc2O[C@@H]1CN(C)CC1CCCCC1
AC50 [15]: 1.93 µM (active)

Cc1noc(C)c1S(=O)(=O)Nc1ccc2c(c1)C(=O)N([C@H](C)CO)C[C@H](C)[C@H](CN(C)Cc1ccc(C(=O)Nc3ccccc3N)cc1)O2
AC50 [15]: 3.11 µM (active)

C[C@@H]1CN([C@H](C)CO)C(=O)Cc2cc(NC(=O)Cc3cn(C)c4ccccc34)ccc2O[C@H]1CN(C)Cc1ccc(Oc2ccccc2)cc1
AC50 [15]: 3.74 µM (active)

COc1ccc(NC(=O)Nc2cccc3c2O[C@@H](CN(C)Cc2ccc(C(=O)Nc4ccccc4N)cc2)[C@H](C)CN([C@H](C)CO)C3=O)cc1
AC50 [15]: 2.41 µM (active)

COc1ccc(NC(=O)Nc2ccc3c(c2)C(=O)N([C@H](C)CO)C[C@H](C)[C@H](CN(C)Cc2ccc(-c4ccccc4)cc2)O3)cc1
AC50 [15]: 4.77 µM (active)

C[C@H](CO)N1C[C@H](C)[C@H](CN(C)Cc2ccc3c(c2)OCO3)Oc2ccc(NC(=O)Nc3ccccc3)cc2C1=O
AC50 [15]: 8.77 µM (active)

C[C@H](CO)N1C[C@H](C)[C@H](CN(C)Cc2ccc(C(=O)Nc3ccccc3N)cc2)Oc2ccc(NC(=O)Nc3ccccc3)cc2CC1=O
AC50 [15]: 2.98 µM (active)

Cc1ccc(S(=O)(=O)N(C)C[C@H]2Oc3cc(-c4cccc(F)c4)ccc3S(=O)(=O)N([C@@H](C)CO)C[C@H]2C)cc1
AC50 [1]: 1.47 µM (active)
AC50 [2]: 6.67 µM (active)

Reference: ChEMBL document CHEMBL1201862, “PubChem BioAssay data set” (2004)
